Data reported in patent publication US20230083730A1, “Composition with Anti-Aging Properties and the Selection Method thereof” (Hemix Biotech Limited, priority 2021, published 2023).

What was measured:
Caenorhabditis elegans [1] = settings: prior art literature; cited from earlier work
[2] = test system: human bone marrow mesenchymal stem cells (MSCs); test: human bone marrow mesenchymal stem cell viability assay (MTS); type: cell-based; settings: 2 days treatment; FIG. 4
Procedure: Firstly, cells were cultured in 96-well plate and CellTiter 96® AQueous One Solution Cell Proliferation Assay (MTS) was used to carry out the cell viability assay. For human mesenchymal stem cells (MSCs), they were seeded and cultured in 96-well plate and treated with control, resveratrol, spermidine or combined treatment for 2 days. Human bone marrow mesenchymal stem cells (MSCs) were treated with four batches of chemical having different ingredients and concentrations of spermidine and resveratrol for two days under identical experimental conditions. The ingredients and concentrations of spermidine and resveratrol of the four different chemicals are: control blank, spermidine alone, resveratrol alone, and a combined use of spermidine and resveratrol.

Caenorhabditis elegans [3] = test: Caenorhabditis elegans lifespan analysis; type: in vivo; settings: 200 μM spermidine alone, 10 μM resveratrol alone, or both combined; FIG. 1a
Procedure: According to an embodiment of the present invention, i.e., a method for selecting a composition having anti-aging properties, step 1 of the method is to confirm the life-span enhancing effect of the composition by using Caenorhabditis elegans lifespan analysis. For chemical treatment in Caenorhabditis elegans, four batches of chemical with different ingredients and content were added to the nematode growth medium (NGM) dishes. The NGM with agarose was autoclaved and then cooled down to below 65° C. The NGM was then poured into 60 mm dishes and incubated at room temperature overnight. The solidified NGM dishes were stored at 4° C. Escherichia coli OP50 strain was used as the food source for C. elegans. A single colony of OP50 was incubated in 200 mL of lysogeny broth (LB) medium at 37° C. overnight. The OP50 was then killed by incubation at 65° C. for 30 minutes. The dead OP50 was spread throughout the surface of the NGM dishes. The NGM dishes with dead OP50 were stored at 4° C. for up to 2 weeks. The synchronization of C. elegans was carried out by the bleaching method. 20 L4 larvae were picked to each 60 mm dish with different chemical treatment and cultured at 20° C. They were monitored every day, and the number of living, dead and missing C. elegans were recorded. […]

Row | SMILES | effective concentration to extend the lifespan of Caenorhabditis elegans (Caenorhabditis elegans [1]) [µM] | cell viability of human bone marrow MSCs [2] | life span of Caenorhabditis elegans (Caenorhabditis elegans [3])
1 | NCCCCNCCCN [spermidine] | 200 | can enhance cell viability | higher than that of the control blank
2 | Oc1ccc(C=Cc2cc(O)cc(O)c2)cc1 [resveratrol, 3,5,4′-trihydroxystilbene] | 100 | can enhance cell viability | higher than that of the control blank
